Data as given in patent publication US7582638B2, “Pyrazole-isoquinoline urea derivatives as p38 kinase inhibitors” (Eli Lilly and Company, priority 2005, dated 2009).

Experiments:
[1] = system: TNFα; test: Effect on intra-articular LPS induced TNFα (synovial lavage fluid); type: in vivo; conditions: female Lewis rats, oral, intra-articular LPS 10 μg one hour later, lavage after two hours
Experimental: Intra-articular injection of LPS into rat ankles induces the synthesis of TNFα, which can be measured in synovial lavage fluid. High levels of TNFα are detectable within 2 hours. Since the joint is the site where arthritis develops, this model can rapidly determine whether an orally administered compound has an effect on an inflammatory response in the synovium.
Six female Lewis rats (150-200 g) are place in each treatment group. The animals are given vehicle (1% NaCarboxylnethylcellulose-0.25% Tween 80) or test compound (1 mg/kg, 3 mg/kg, 10 mg/kg, and 30 mg/kg) orally. One hour later, 10 μl LPS (10 μg) is administered intra-articularly into the right ankle of each rat, while the left ankle receives 10 μL of saline. After two hours, each ankle is lavaged with 100 μL of saline. The lavage is collected and stored at −80° C. • Group#1: Vehicle (1%/NaCMC-0.25% Tween 80, 1 mL, PO) • Group#2: Test compound (1 mg/kg, 1 mL, PO) • Group#3: Test compound (3 mg/kg, 1 mL, PO) • Group#4: Test compound (10 mg/kg, 1 mL, PO) • Group#5: Test compound (30 mg/kg, 1 mL, PO)
TNFα is measured with a commercially available ELISA kit (R&D, RTA00).

[2] = system: TNFα; test: Inhibition of TNFα in vitro (LPS/interferon-γ treated mouse peritoneal macrophages, Luminex); type: cell-based; conditions: Peritoneal macrophage, LPS 50 ng/mL and interferon-γ 10 U/mL, 18 hours, read-out: IC50, suppression of TNFα in vitro
Experimental: 1 mL thioglycolate broth (5.0 g yeast extract, 15.0 g casitone or trypticase, 5.0 g dextrose, 2.5 g sodium chloride, 0.75 g L-cystine, 0.5 g sodium thioglycolate, 1.0 mg resazurin, and 0.75 g agar in 1.0 L distilled water) are injected into the peritoneal cavity of Balb/C female mice. At day 4 or 5 post-injection the mice are sacrificed and then injected i.p. with 4 mL RPMI-1640 medium (BioWhittaker) and the peritoneal macrophages are withdrawn by syringe.
Mouse peritoneal macrophages are counted with a hemocytometer and adjusted to 5×10^5 cells/well in 96-well plates in RPMI-1640 medium with 10% fetal bovine serum. 200 μL/well is plated in 96-well plates and the cells allowed to settle and adhere to the bottom of the well for at least 3 hours. The test compound or standard p38 kinase inhibitor is pre-treated using a series of 8 concentrations for 1 hour at 37° C. […]
50 μL of cytokine detection antibody is added and incubated for 60 seconds at room temperature on a shaker protected from light at setting 6 and then for 30 minutes at setting 3.3 washes are performed with the Bio-Plex Wash Buffer. […] Standards and samples are read on a Luminex machine. These intensity readings are then converted to picogram/milliliter units based on a 12-point standard curve created in duplicate using a four-parameter logistic regression method (Bio-Plex Manager 2.0, Bio-Rad), and the IC50 calculated. […]

IC50 [2]: < 9 nM
Structure (SMILES): CS(=O)(=O)O.Cc1ccc(-n2nc(C3(C)CC3)cc2NC(=O)Nc2cnc(OC3CCN(C(=O)C4(C)CC4)CC3)c3ccccc23)cc1 [Example 12, 1-{1-[1-(1-Methyl-cyclopropanecarbonyl)-piperidin-4-yloxy]-isoquinolin-4-yl}-3-[5-(1-methyl-cyclopropyl)-2-p-tolyl-2H-pyrazol-3-yl]-urea mesylate]
TMED50, inhibition of TNFα synthesis in the synovial lavage fluid [1]: 2.54 mg/kg
